Results taken from patent US5549903A, “Microencapsulated composition containing chlorpyrifos or endosulfsan” (priority 1994, dated 1996).

How the values were obtained:
[1] = system: rats; conditions: technical chlorpyrifos; cited from earlier work
[2] = system: honey bees; conditions: technical chlorpyrifos, comparison value; cited from earlier work
[3] = system: honey bees; conditions: technical chlorpyrifos, comparison value; cited from earlier work; remark: listed apart in the source
[4] = Stability of unprotected chlorpyrifos to UV/visible light; format: physicochemical; conditions: 68 hours
Method: Unprotected chlorpyrifos was irradiated by an ultraviolet/visible light lamp for 68 hours. The stability versus the wavelength of the light is summarized as follows: […]

[5] = system: mice; conditions: technical material; cited from earlier work
[6] = Stability of endosulfan to irradiation; format: physicochemical; conditions: 100 hours at 310±5 nanometers and 475± nanometers
Source text: Details of the stability of chlorpyrifos are listed in Example 2.

Row | SMILES | LD50 (acute oral) [1] | LD50 contact [2] | LD50 oral [3] | Extent of Degradation ([4]; 313 ± 5 nm) | Extent of Degradation ([4]; 365 ± 5 nm) | Extent of Degradation ([4]; 404 ± 5 nm) | Extent of Degradation ([4]; 436 ± 5 nm) | LD50 [5] | decomposition after irradiation [6]
1 | CCOP(=S)(OCC)Oc1nc(Cl)c(Cl)cc1Cl [chlorpyrifos, O,O-diethyl-O-(3,5,6-trichloro-2-pyridyl)-phosphorathio-ate] | 168 mg/kg | 0.059 μ/bee | 0.25 μg/bee | Total degradation | Low degradation | Low degradation | Medium degradation | – | –
2 | O=S1OCC2C(CO1)C1(Cl)C(Cl)=C(Cl)C2(Cl)C1(Cl)Cl (stereo not drawn) [endosulfan, 6,7,8,9,10-hexachloro-1,5-5a,9a tetryhydro-6,9-methano-2,4,3-benzodioxathipia-3-oxide] | – | – | – | – | – | – | – | 30 mg/kg | decomposed
